Columns and labels:
[1] = recombinant barcode read abundance after kanamycin selection (control-corrected) (log10(CPM+1)); higher = more efficient recombination; sequences stand for … in AGTGCAGAGAAAATCGGCCAGTTTTCTCTGCCTGCAGTCCGCATGCCGT…AGATTTATGCAGCGGACTGCCTTTCTCCCAAAGTGATAAACCGGACAGTATCATGGACCGGTTTTCCCGGTAATCCGTATTTGCAAGGTTGGTTTCACT; site = the 11-nt target
Procedure: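 Pooled E. coli target-specificity screen for the IS621 bridge recombinase. Each library plasmid pairs an 11-nt target (CT core) with a bridge RNA whose target-binding loop (9-nt LTG + 4-nt RTG) is reprogrammed; the rest of the 177-nt WT IS621 bridge RNA scaffold is fixed. The plasmid is co-electroporated with a WT donor plasmid; recombinase is induced with 0.1 mM IPTG and recombinants are selected on kanamycin. Recombinant barcodes are sequenced, converted to CPM, averaged over two biological replicates and corrected by the unselected control CPM. Molecule = full bridge RNA written as DNA: LTG = specificity nt 1-9, RTG = reverse complement of specificity nt 8-11, in the WT scaffold.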

[2] = recombinant UMI read abundance after kanamycin selection (control-corrected) (log10(CPM+1)); higher = more efficient recombination; extreme values may be limits of the assay; sequences stand for … in AGTGCAGAGAAAATCGGCCAGTTTTCTCTGCCTGCAGTCCGCATGCCGTGGGACCCCTTGGGTTCTAACCTGTTGCCTAGATTTATGCAGCGGACTGCCTTTCTCCCAAAGTGATAAACCGG…AGGTTGGTTTCACT; site = the 11-nt donor
In short: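 Reported values are log10(CPM+1) from a pooled Escherichia coli screen of donor and donor-binding-loop pairs for the IS621 bridge recombinase. Selection used IPTG (0.07 mM) plus kanamycin, against unselected plating, each in two replicates. Recombinant UMIs were amplified across the donor–target junction, sequenced, converted to CPM, averaged over replicates and scaled by control-derived factors.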
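For recombinant UMI read abundance after kanamycin selection (control-corrected) in this document: IS621 bridge recombinase in Escherichia coli cells against a fixed T5 target plasmid.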
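For recombinant barcode read abundance after kanamycin selection (control-corrected) in this document: IS621 recombinase and bridge RNA in Escherichia coli cells.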

Row | Sequence | recombinant barcode read abundance (log10) [1] | recombinant UMI read abundance (log10) [2]
1 | AAAATACCTTGGGTTCTAACCTGTTGCGG (site AAAATACCTCC) | 1.68 | 
2 | AAAATACCTTGGGTTCTAACCTGTTGCGG (site CAAAGACCTCC) | 0.12 | 
3 | AAAATATCTTGGGTTCTAACCTGTTGCCT (site AAAATATCTAG) | 0.438 | 
4 | AAAATATCTTGGGTTCTAACCTGTTGCCT (site TCGTACCCTTT) | 0.0268 | 
5 | AAAATCTCTTGGGTTCTAACCTGTTGCCT (site AAAATCTCTAG) | 0.708 | 
6 | AAAATCTCTTGGGTTCTAACCTGTTGCCT (site AAACTCGCTAG) | 0.113 | 
7 | AAACTAGCTTGGGTTCTAACCTGTTGCGG (site AAACTAGCTCC) | 2.27 | 
8 | AAACTAGCTTGGGTTCTAACCTGTTGCGG (site CGTGCGCCTAG) | 0.288 | 
9 | AAACTCGCTTGGGTTCTAACCTGTTGCCT (site AAAATCTCTAG) | 0.322 | 
10 | TTGGAAACATGGACCGGTTTTCCCGGTAATCCGTATTTGCA (site GTGGAAACTTG) |  | 0.342
11 | TTGGAAACATGGACCGGTTTTCCCGGTAATCCGTATTTGCA (site TTGGAAACTTG) |  | 1.86
12 | TTGGAGCCATGGACCGGTTTTCCCGGTAATCCGTATTTGAC (site TTGGAGCCTGT) |  | 1.31
13 | TTGGCCACATGGACCGGTTTTCCCGGTAATCCGTATTTGGA (site TTGGCCACTTC) |  | 0.146
14 | TTGGCGTCATGGACCGGTTTTCCCGGTAATCCGTATTTGTC (site TTGGCGTCTGA) |  | 1.13
15 | TTGGTATCATGGACCGGTTTTCCCGGTAATCCGTATTTGAC (site TTGGTATCTGT) |  | 2.59
16 | TTGTACCCATGGACCGGTTTTCCCGGTAATCCGTATTTGGT (site TTGTACCCTAC) |  | 0.111
17 | TTGTATACATGGACCGGTTTTCCCGGTAATCCGTATTTGGG (site TTGTATACTCC) |  | 0.00305
18 | TTGTGATCATGGACCGGTTTTCCCGGTAATCCGTATTTGTG (site TTGTGATCTCA) |  | 1.25
19 | TTGTGGACATGGACCGGTTTTCCCGGTAATCCGTATTTGTA (site TTGTGGACTTA) |  | 1.6
20 | TTTAAAGCATGGACCGGTTTTCCCGGTAATCCGTATTTGAC (site TTTAAAGCTGT) |  | 0
21 | TTTAACCCATGGACCGGTTTTCCCGGTAATCCGTATTTGAA (site TTTAACCCTTT) |  | 0.00893

Row | Sequence | recombinant barcode read abundance (log10) [1] | recombinant UMI read abundance (log10) [2]
22 | TTTAACTCATGGACCGGTTTTCCCGGTAATCCGTATTTGAA (site TTTAACTCTTT) |  | 0.34
23 | TTTAATACATGGACCGGTTTTCCCGGTAATCCGTATTTGAA (site TTTAATACTTT) |  | 0.00702
24 | TTTACGTCATGGACCGGTTTTCCCGGTAATCCGTATTTGAT (site TTTACGTCTAT) |  | 0.00816
25 | TTTAGACCATGGACCGGTTTTCCCGGTAATCCGTATTTGTC (site TTTAGACCTGA) |  | 0
26 | TTTATCCCATGGACCGGTTTTCCCGGTAATCCGTATTTGAT (site TTTATCCCTAT) |  | 0.263
27 | TTTCAGGCATGGACCGGTTTTCCCGGTAATCCGTATTTGAG (site TTTCAGGCTCT) |  | 0.155
28 | TTTCTAGCATGGACCGGTTTTCCCGGTAATCCGTATTTGGT (site TTTCTAGCTAC) |  | 0.0163
29 | TTTCTCACATGGACCGGTTTTCCCGGTAATCCGTATTTGCC (site TTTCTCACTGG) |  | 0.843
30 | TTTCTGTCATGGACCGGTTTTCCCGGTAATCCGTATTTGTA (site TTTCTGTCTTA) |  | 0
31 | TTTGAAGCATGGACCGGTTTTCCCGGTAATCCGTATTTGCG (site TTTGAAGCTCG) |  | 1.11
32 | TTTGCAGCATGGACCGGTTTTCCCGGTAATCCGTATTTGCT (site TTTGCAGCTAG) |  | 0.00605
33 | TTTGCAGCATGGACCGGTTTTCCCGGTAATCCGTATTTGCT (site TTTGCCGCTAG) |  | 0.0123
34 | TTTGCAGCATGGACCGGTTTTCCCGGTAATCCGTATTTGCT (site TTTGCGGCTAG) |  | 0.00881
35 | TTTGCAGCATGGACCGGTTTTCCCGGTAATCCGTATTTGCT (site TTTGCTGCTAG) |  | 0.00602
36 | TTTGCGCCATGGACCGGTTTTCCCGGTAATCCGTATTTGCT (site TTTGCGACTAG) |  | 0.0112
37 | TTTGCGCCATGGACCGGTTTTCCCGGTAATCCGTATTTGCT (site TTTGCGCCTAG) |  | 0.00475
38 | TTTGCGCCATGGACCGGTTTTCCCGGTAATCCGTATTTGCT (site TTTGCGGCTAG) |  | 0
39 | TTTGCGCCATGGACCGGTTTTCCCGGTAATCCGTATTTGCT (site TTTGCGTCTAG) |  | 0.0103
40 | TTTGCGGCATGGACCGGTTTTCCCGGTAATCCGTATTTGCA (site TTTGCGGCTAG) |  | 0.0111
41 | TTTGCGGCATGGACCGGTTTTCCCGGTAATCCGTATTTGCA (site TTTGCGGCTCG) |  | 0
42 | TTTGCGGCATGGACCGGTTTTCCCGGTAATCCGTATTTGCA (site TTTGCGGCTGG) |  | 0

Row | Sequence | recombinant barcode read abundance (log10) [1] | recombinant UMI read abundance (log10) [2]
43 | TTTGCGGCATGGACCGGTTTTCCCGGTAATCCGTATTTGCA (site TTTGCGGCTTG) |  | 0.222
44 | TTTGCGTCATGGACCGGTTTTCCCGGTAATCCGTATTTGCT (site TTTGCGACTAG) |  | 0
45 | TTTGCGTCATGGACCGGTTTTCCCGGTAATCCGTATTTGCT (site TTTGCGCCTAG) |  | 0.0115
46 | TTTGCGTCATGGACCGGTTTTCCCGGTAATCCGTATTTGCT (site TTTGCGGCTAG) |  | 0.018
47 | TTTGCGTCATGGACCGGTTTTCCCGGTAATCCGTATTTGCT (site TTTGCGTCTAG) |  | 0.251
48 | TTTGCTGCATGGACCGGTTTTCCCGGTAATCCGTATTTGTG (site TTAGCTGCTCA) |  | 0.0128
49 | TTTGCTGCATGGACCGGTTTTCCCGGTAATCCGTATTTGTG (site TTCGCTGCTCA) |  | 0.00352
50 | TTTGCTGCATGGACCGGTTTTCCCGGTAATCCGTATTTGTG (site TTGGCTGCTCA) |  | 0.0177
51 | TTTGCTGCATGGACCGGTTTTCCCGGTAATCCGTATTTGTG (site TTTGCTGCTCA) |  | 0.0238
52 | TTTGGCCCATGGACCGGTTTTCCCGGTAATCCGTATTTGCC (site TTTGGCCCTGG) |  | 0
53 | TTTGTGACATGGACCGGTTTTCCCGGTAATCCGTATTTGAG (site TTTGTGACTCT) |  | 0.0187
54 | TTTGTGGCATGGACCGGTTTTCCCGGTAATCCGTATTTGCT (site TTTGAGGCTAG) |  | 0
55 | TTTGTGGCATGGACCGGTTTTCCCGGTAATCCGTATTTGCT (site TTTGCGGCTAG) |  | 0.00488
56 | TTTGTGGCATGGACCGGTTTTCCCGGTAATCCGTATTTGCT (site TTTGGGGCTAG) |  | 0.022
57 | TTTGTGGCATGGACCGGTTTTCCCGGTAATCCGTATTTGCT (site TTTGTGGCTAG) |  | 0.113
58 | TTTGTTCCATGGACCGGTTTTCCCGGTAATCCGTATTTGGT (site ATTGTTCCTAC) |  | 0.0334
59 | TTTGTTCCATGGACCGGTTTTCCCGGTAATCCGTATTTGGT (site CTTGTTCCTAC) |  | 0.00622
60 | TTTGTTCCATGGACCGGTTTTCCCGGTAATCCGTATTTGGT (site GTTGTTCCTAC) |  | 0.0225
61 | TTTGTTCCATGGACCGGTTTTCCCGGTAATCCGTATTTGGT (site TTTGTTCCTAC) |  | 0.0215

— the supplement of paper PMC11208160
